# From patent US8779141B2, “Viral inhibitors” (Gilead Sciences, Inc., priority 2002, dated 2014)
# Like-named read-outs stand apart in the source and are kept apart here.
# How the values were obtained:
# BVDV-1 (strain PE515) = assay: Anti-BVDV assay, virus-induced cytopathic effect in MDBK cells (MTS); type: cell-based, Bovine Viral Diarrhea Virus
# Description: (§1) Madin-Darbey Bovine Kidney (MDBK) cells were maintained in Dulbecco's modified Eagle medium (DMEM) supplemented with BVDV-free 5% fetal calf serum (DMEME-FCS) at 37° C. in a humidified, 5% CO2 atmosphere. BVDV-1 (strain PE515) was used to assess the antiviral activity in MDBK cells. Vero cells were maintained in the same way as MDBK cells. Vero cells were infected with Coxsackie B3 virus (strain Nancy).
# Ninety-six-well cell culture plates were seeded with MDBK cells in DMEM-FCS so that cells reached 24 hr later confluency. Then medium was removed and serial 5-fold dilutions of the test compounds were added in a total volume of 100 ul, after which the virus inoculum (100 ul) was added to each well. […] Uninfected cells and cells receiving virus without compound were included in each assay plate. After 5 days, medium was removed and 90 μl of DMEM-FCS and 10 ul of MTS/PMS solution (Promega) was added to each well. Following a 2 hr incubation period at 37° C. the optical density of the wells was read at 498 nm in a microplate reader.
# [1] = Cytostatic effect on exponentially growing MDBK cells (MTS); type: cell-based, Bovine; settings: bovine; Table 9; reduction of growth of exponentially growing MDBK cells by 50%; mean of 2-5 determinations
# Description: (§2) Madin-Darbey Bovine Kidney (MDBK) cells were maintained in Dulbecco's modified Eagle medium (DMEM) supplemented with BVDV-free 5% fetal calf serum ([…]) at 37° C. in a humidified, 5% CO2 atmosphere. […] Vero cells were maintained in the same way as MDBK cells. […] The effect of the drugs on exponentially growing MDBK cells was assessed as follows. Cells were seeded at a density of 5000 cell/well in 96 well plates in MEM medium (Gibco) supplemented with 10% fetal calf serum, 2 mM L-glutamine (Life Technologies) and bicarbonate (Life Technologies). […] Cultures were then again further incubated for 3 days after which the effect on cell growth was quantified by means of the MTS method (Promega).
# [2] = system: Coxsackie B3 virus (strain Nancy); assay: Anti-coxsackie virus assay, cytopathic effect in Vero cells (MTS); type: cell-based; settings: Enterovirus B, Table 13, reduction of virus (CBV-3 Nancy strain)-induced cytopathic effect in Vero cells by 50%
# Description: as §1
# (§3) Ninety-six-well cell culture plates were seeded with Vero cells in DMEM medium containing 10 fetal calf serum (FCS) so that cells reached confluency 24-48 hr later. Medium was then removed and serial 5-fold dilutions of the test compounds were added in a total volume of 100 ul, after which the virus inoculum (100 μl) was added to each well. […] Uninfected cells and cells receiving virus without compound were included in each asay plate. After 5 days, the medium was removed and 90 μl of DMEM-FCS and 10 μl of MTS/PMS solution (Promega) was added to each well. Following a 2 hr incubation period at 37° C., the optical density of the wells was read at 498 nm in a microplate reader. The 50% effective concentration (EC50) value was defined as the concentration of compound that protects 50% of the cell monolayer from virus-induced cytopathic effect.
# Vero cells = assay: Metabolism of confluent Vero cells (MTS); type: cell-based; settings: Table 13; reduction of metabolism of confluent Vero cells by 50%, MTS method
# Description: as §1, §3
# MDBK cells = assay: Cytostatic effect on exponentially growing MDBK cells (MTS); type: cell-based, Bovine; settings: for MTC: Table 10, mean toxic concentration, reduces growth of exponentially growing MDBK cells by 50%
# Description: as §2
# [3] = system: HCV replicon in Huh-5-2 cells; assay: Anti-HCV replicon assay, luciferase activity in Huh-5-2 cells; type: cell-based; settings: Hepatitis C virus, Table 11, inhibition of luciferase activity in the replicon system by 50%
# Description: (§4) Cells were seeded at a density of 7000 cells per well in 96 well View Plate™ (Packard) in medium containing the same components as described above, except for G418. Cells were allowed to adhere and proliferate for 24 hr. At that time, culture medium was removed and serial dilutions of the test compounds were added in culture medium lacking G418. Interferon alfa 2a (500 IU) was included as a positive control. Plates were further incubated at 37° C. and 5% CO2 for 72 hours. Replication of the HCV replicon in Huh-5 cells results in luciferase activity in the cells. Luciferase activity is measured by adding 50 μl of 1× Glo-lysis buffer (Promega) for 15 minutes followed by 50 ul of the Steady-Glo Luciferase assay reagent (Promega). Luciferase activity is measured with a luminometer and the signal in each individual well is expressed as a percentage of the untreated cultures. […] Instead the density of the culture is measured by means of the MTS method (Promega).
# [4] = Proliferation of exponentially growing Huh-5-2 cells (MTS); type: cell-based; settings: human, exponentially growing Huh-5-2 cells (HCV replicon cell line); Table 11; inhibition of proliferation of exponentially growing Huh-5-2 cells by 50%
# Description: as §4
# [5] = Bovine viral diarrhea virus isolates and strains, Table 9, reduction of virus induced cytopathic effect in MDBK cells by 50%, BVDV strain PE515, mean of 2-5 determinations, read-out: EC50
# [6] = Bovine viral diarrhea virus isolates and strains, MDBK
# [7] = Bovine viral diarrhea virus isolates and strains, Table 10, reduction of virus induced cytopathic effect in MDBK cells by 50%, read-out: EC50
Structure (SMILES),EC50 (BVDV-1 (strain PE515); [5]) [µg/mL],CC50 at 3 days [1] [µg/mL],EC50 [2] [µg/mL],TC50 (Vero cells) [µg/mL],also measured
"Fc1cccc(F)c1-c1nc2ccn(Cc3ccc(Cl)c(Cl)c3)cc-2n1 [GPC-10, 5-[(3,4-Dichlorophenyl)methyl]-2-(2,6-difluorophenyl)-5H-imidazo[4,5-c]pyridine]",0.064,4,1.81,59,–
"Fc1cccc(-c2nc3ccn(Cc4ccc(F)cc4F)cc-3n2)c1 [GPC-11, 5-[(2,4-Difluorophenyl)methyl]-2-(3-fluorophenyl)-5H-imidazo[4,5-c]pyridine]",0.56,> 100,4.76,>100,–
"Fc1ccc(Cn2ccc3nc(-c4c(F)ccc(F)c4F)nc-3c2)c(F)c1 [GPC-12, 5-[(2,4-Difluorophenyl)methyl]-2-(2,3,6-trifluorophenyl)-5H-imidazo[4,5-c]pyridine]",–,–,3.6,>100,–
"c1ccc(-c2ccc(Cn3ccc4nc(-c5ccccc5)nc-4c3)cc2)cc1 [GPJN-32, 5-([1,1′-Biphenyl]-4-ylmethyl)-2-phenyl-5H-imidazo[4,5-c]pyridine]",0.027,20,6.5,69,–
"c1ccc(-c2nc3ccn(Cc4cccc5ccccc45)cc-3n2)cc1 [GPJN-36, 5-(1-Naphthalenylmethyl)-2-phenyl-5H-imidazo[4,5-c]pyridine]",–,–,–,–,"EC50 (BVDV-1 (strain PE515); Table 9, reduction of virus induced cytopathic effect in MDBK cells by 50%, BVDV strain PE515, mean of 2-5 determinations): 0.019 µg/mL; CC50 (MDBK cells; Table 9, reduction of growth of exponentially growing MDBK cells by 50%, mean of 2-5 determinations): 24 µg/mL"
"Fc1ccc(Cn2ccc3nc(-c4c(F)cccc4F)nc-3c2)c(F)c1 [GPJN-40, 2-(2,6-Difluorophenyl)-5-[(2,4-difluorophenyl)methyl]-5H-imidazo[4,5-c]pyridine]",0.25,> 100,8.95,>100,–
"Fc1cccc(-c2nc3ccn(Cc4ccc(Br)cc4)cc-3n2)c1 [GPJN-50, 5-[(4-Bromophenyl)methyl]-2-(3-fluorophenyl)-5H-imidazo[4,5-c]pyridine]",0.021,> 100,8.47,>100,–
"Clc1ccccc1-c1nc2ccn(Cc3ccc(Br)cc3)cc-2n1 [GPJN-54, 5-[(4-Bromophenyl)methyl]-2-(2-chlorophenyl)-5H-imidazo[4,5-c]pyridine]",0.1,35,–,–,–
"Clc1cccc(-c2nc3ccn(Cc4ccc(Br)cc4)cc-3n2)c1 [GPJN-55, 5-[(4-Bromophenyl)methyl]-2-(3-chlorophenyl)-5H-imidazo[4,5-c]pyridine]",0.06,> 100,–,–,–
"Cc1cccc(-c2nc3ccn(Cc4ccc(Br)cc4)cc-3n2)c1 [GPJN-60, 5-[(4-Bromophenyl)methyl]-2-(3-methylphenyl)-5H-imidazo[4,5-c]pyridine]",–,> 77,6.1,>100,EC50 (BVDV-1 (strain PE515); [6]): 0.015 µg/mL
"Brc1ccc(Cn2ccc3nc(-c4ccc5ccccc5c4)nc-3c2)cc1 [GPJN-63, 5-[(4-Bromophenyl)methyl]-2-(2-naphthalenyl)-5H-imidazo[4,5-c]pyridine]",0.0042,4.3,–,–,–
"COc1cccc(-c2nc3ccn(Cc4ccc(Br)cc4)cc-3n2)c1 [GPJN-64, 5-[(4-Bromophenyl)methyl]-2-(3-methoxyphenyl)-5H-imidazo[4,5-c]pyridine]",0.026,> 100,12,>42,–
"Brc1ccc(Cn2ccc3nc(-c4cccc(Br)c4)nc-3c2)cc1 [GPJN-65, 2-(3-Bromophenyl)-5-[(4-bromophenyl)methyl]-5H-imidazo[4,5-c]pyridine]",–,> 100,–,–,EC50 (BVDV-1 (strain PE515); [6]): 0.01 µg/mL
"Ic1ccc(Cn2ccc3nc(-c4ccccc4)nc-3c2)cc1 [GPJN-68, 5-[(4-Iodophenyl)methyl]-2-phenyl-5H-imidazo[4,5-c]pyridine]",0.026,17,–,–,–
"c1ccc(OCCn2ccc3nc(-c4ccccc4)nc-3c2)cc1 [GPJN-73, 5-(2-Phenoxyethyl)-2-phenyl-5H-imidazo[4,5-c]pyridine]",0.017,> 100,–,–,–
"C(=Cc1ccccc1)Cn1ccc2nc(-c3ccccc3)nc-2c1 [GPJN-75, 2-Phenyl-5-(3-phenyl-2-propenyl)-5H-imidazo[4,5-c]pyridine]",0.018,31.7,–,–,–
"Brc1cccc(-c2nc3ccn(Cc4ccc(I)cc4)cc-3n2)c1 [GPJN-79, 2-(3-Bromophenyl)-5-[(4-iodophenyl)methyl]-5H-imidazo[4,5-c]pyridine]",0.083,> 100,–,–,–
"Clc1ccc(Cn2ccc3nc(-c4cccc(Br)c4)nc-3c2)cc1 [GPJN-80, 2-(3-Bromophenyl)-5-[(4-chlorophenyl)methyl]-5H-imidazo[4,5-c]pyridine]",0.18,> 100,–,–,–
"Brc1ccc(Cn2ccc3nc(CSc4ccccc4)nc-3c2)cc1 [GPJN-83, 5-[(4-Bromophenyl)methyl]-2-[(phenylthio)methyl]-5H-imidazo[4,5-c]pyridine]",–,–,–,–,EC50 [3]: < 0.62 µg/mL; CC50 at 72 hours [4]: 8 µg/mL
"Brc1cccc(-c2nc3ccn(CCOc4ccccc4)cc-3n2)c1 [GPJN-100, 2-(3-Bromophenyl)-5-(2-phenoxyethyl)-5H-imidazo[4,5-c]pyridine]",–,–,–,–,EC50 (BVDV-1 (strain PE515); [7]): 0.088 µg/mL; MTC (MDBK cells): 20 µg/mL
"Clc1cn(Cc2ccc(Br)cc2)cc2nc(-c3ccccc3)nc1-2 [GPJN-103, 5-[(4-Bromophenyl)methyl]-7-chloro-2-phenyl-5H-imidazo[4,5-c]pyridine]",–,–,–,–,EC50 (BVDV-1 (strain PE515); [7]): 0.061 µg/mL; MTC (MDBK cells): 20 µg/mL
"Cc1cn(Cc2ccc(Br)cc2)cc2nc(-c3ccccc3)nc1-2 [GPJN-104, 5-[(4-Bromophenyl)methyl]-7-methyl-2-phenyl-5H-imidazo[4,5-c]pyridine]",–,–,–,–,EC50 (BVDV-1 (strain PE515); [7]): 0.27 µg/mL; MTC (MDBK cells): 20 µg/mL
"c1ccc(-c2ccc(Cn3ccc4nc(-c5cccc6ccccc56)nc-4c3)cc2)cc1 [GPJN-115, 5-([1,1′-Biphenyl]-4-ylmethyl)-2-(1-naphthalenyl)-5H-imidazo[4,5-c]pyridine]",–,–,–,–,EC50 (BVDV-1 (strain PE515); [7]): 0.24 µg/mL; MTC (MDBK cells): 4 µg/mL
